Measured values taken from ChEMBL document CHEMBL1156987, “Novel azalides derived from 16-membered macrolides. III. Azalides modified at the C-15 and 4'' positions: Improved antibacterial activities” (Bioorg Med Chem, 2010).
Values after ≈ are worked out from the molar mass of the structure shown.

Columns and labels:
Format in all cases: functional
[1] = tested on: Staphylococcus aureus; experiment: Antibacterial activity against Staphylococcus aureus 209P JC1 after 20 hrs by agar dilution method; conditions: 209P JC1, 20 h
[2] = tested on: Streptococcus pneumoniae; experiment: Antibacterial activity against Streptococcus pneumoniae DP1 type 1 after 20 hrs by agar dilution method; conditions: DP1 type1, 20 h
[3] = tested on: Streptococcus pneumoniae; experiment: Antibacterial activity against Streptococcus pneumoniae 5 expressing constitutive ermB methylase after 20 hrs by agar dilution method; conditions: Streptococcus pneumoniae, 5, 20 h
[4] = tested on: Streptococcus pneumoniae; experiment: Antibacterial activity against Streptococcus pneumoniae 6 expressing constitutive ermB methylase and mefA after 20 hrs by agar dilution method; conditions: Streptococcus pneumoniae, 6, 20 h
[5] = tested on: Streptococcus pneumoniae; experiment: Antibacterial activity against Streptococcus pneumoniae 7 expressing constitutive ermB methylase after 20 hrs by agar dilution method; conditions: Streptococcus pneumoniae, 7, 20 h
[6] = tested on: Streptococcus pneumoniae; experiment: Antibacterial activity against Streptococcus pneumoniae 8 expressing inducible ermB methylase after 20 hrs by agar dilution method; conditions: Streptococcus pneumoniae, 8, 20 h
[7] = tested on: Streptococcus pneumoniae; experiment: Antibacterial activity against Streptococcus pneumoniae 9 expressing inducible ermB methylase after 20 hrs by agar dilution method; conditions: Streptococcus pneumoniae, 9, 20 h
[8] = tested on: Streptococcus pneumoniae; experiment: Antibacterial activity against Streptococcus pneumoniae 10 expressing mefA efflux pump after 20 hrs by agar dilution method; conditions: Streptococcus pneumoniae, 10, 20 h
[9] = tested on: Streptococcus pneumoniae; experiment: Antibacterial activity against Streptococcus pneumoniae 11 expressing mefA efflux pump after 20 hrs by agar dilution method; conditions: Streptococcus pneumoniae, 11, 20 h
[10] = tested on: Streptococcus pyogenes; experiment: Antibacterial activity against Streptococcus pyogenes Cook after 20 hrs by agar dilution method
[11] = tested on: Streptococcus pyogenes; experiment: Antibacterial activity against Streptococcus pyogenes 2 expressing constitutive ermB methylase after 20 hrs by agar dilution method; conditions: Streptococcus pyogenes, 2, 20 h
[12] = tested on: Streptococcus pyogenes; experiment: Antibacterial activity against Streptococcus pyogenes 3 expressing mefA efflux pump after 20 hrs by agar dilution method; conditions: Streptococcus pyogenes, 3, 20 h
[13] = tested on: Haemophilus influenzae; experiment: Antibacterial activity against Haemophilus influenzae 1 after 20 hrs by agar dilution method; conditions: Haemophilus influenzae, 1, 20 h
[14] = tested on: Haemophilus influenzae; experiment: Antibacterial activity against Haemophilus influenzae 2 after 20 hrs by agar dilution method; conditions: Haemophilus influenzae, 2, 20 h
[15] = tested on: Haemophilus influenzae; experiment: Antibacterial activity against Haemophilus influenzae 3 after 20 hrs by agar dilution method; conditions: Haemophilus influenzae, 3, 20 h

Q: Which MIC [1] does the source give for `CCNC(=O)O[C@H]1[C@H](C)O[C@@H](O[C@H]2[C@H](N(C)C)[C@@H](O)[C@H](O[C@H]3[C@@H](CC=O)C[C@@H](C)[C@@H](O)CN(C)CCC[C@H](C/C=C/c4cccnc4)OC(=O)C[C@@H](OC(=O)CC)[C@@H]3OC)O[C@@H]2C)C[C@@]1(C)OC(=O)CC` here?
A: 0.5 µg/mL (≈ 0.496 µM)

Q: And the MIC [2]?
A: 0.015 µg/mL (≈ 0.0149 µM)

Q: And the MIC [3]?
A: 32 µg/mL (≈ 31.8 µM)

Q: What about the MIC [4] of the same compound?
A: 32 µg/mL (≈ 31.8 µM)

Q: What about the MIC [5] of the same compound?
A: 32 µg/mL (≈ 31.8 µM)

Q: And the MIC [6]?
A: 0.5 µg/mL (≈ 0.496 µM)

Q: And the MIC [7]?
A: 0.5 µg/mL (≈ 0.496 µM)

Q: What about the MIC [8] of the same compound?
A: 0.06 µg/mL (≈ 0.0596 µM)

Q: What about the MIC [9] of the same compound?
A: 0.06 µg/mL (≈ 0.0596 µM)

Q: And the MIC [10]?
A: 0.13 µg/mL (≈ 0.129 µM)

Q: And the MIC [11]?
A: > 64 µg/mL

Q: What about the MIC [12] of the same compound?
A: 0.5 µg/mL (≈ 0.496 µM)

Q: And the MIC [13]?
A: 4 µg/mL (≈ 3.97 µM)

Q: What about the MIC [14] of the same compound?
A: 16 µg/mL (≈ 15.9 µM)

Q: And the MIC [15]?
A: 32 µg/mL (≈ 31.8 µM)

Q: Which MIC [1] does the source give for `CCNC(=O)O[C@H]1[C@H](C)O[C@@H](O[C@H]2[C@H](N(C)C)[C@@H](O)[C@H](O[C@H]3[C@@H](CC=O)C[C@@H](C)[C@@H](O)CN(C)CCC[C@H](C/C=C/c4ccc(N)nc4)OC(=O)C[C@@H](OC(=O)CC)[C@@H]3OC)O[C@@H]2C)C[C@@]1(C)OC(=O)CC` here?
A: 1 µg/mL (≈ 0.978 µM)

Q: And the MIC [2]?
A: 0.03 µg/mL (≈ 0.0293 µM)

Q: And the MIC [3]?
A: 8 µg/mL (≈ 7.83 µM)

Q: What about the MIC [4] of the same compound?
A: 8 µg/mL (≈ 7.83 µM)

Q: What about the MIC [5] of the same compound?
A: 8 µg/mL (≈ 7.83 µM)

Q: And the MIC [6]?
A: 0.25 µg/mL (≈ 0.245 µM)

Q: What about the MIC [7] of the same compound?
A: 0.5 µg/mL (≈ 0.489 µM)

Q: And the MIC [8]?
A: 0.06 µg/mL (≈ 0.0587 µM)

Q: What about the MIC [9] of the same compound?
A: 0.06 µg/mL (≈ 0.0587 µM)

Q: And the MIC [10]?
A: 0.13 µg/mL (≈ 0.127 µM)

Q: And the MIC [11]?
A: > 32 µg/mL

Q: What about the MIC [12] of the same compound?
A: 0.5 µg/mL (≈ 0.489 µM)

Q: And the MIC [13]?
A: 4 µg/mL (≈ 3.91 µM)

Q: What about the MIC [14] of the same compound?
A: 16 µg/mL (≈ 15.7 µM)

Q: And the MIC [15]?
A: 32 µg/mL (≈ 31.3 µM)

Q: Which results are given for `CCC(=O)O[C@@H]1CC(=O)O[C@@H](C/C=C/c2ccc3ccccc3c2)CCCN(C)C[C@H](O)[C@H](C)C[C@H](CC=O)[C@H](O[C@@H]2O[C@H](C)[C@@H](O[C@H]3C[C@@](C)(O)[C@@H](OC(=O)CC)[C@H](C)O3)[C@H](N(C)C)[C@H]2O)[C@H]1OC`?
A: MIC [1]: 0.5 µg/mL (≈ 0.507 µM); MIC [2]: 0.06 µg/mL (≈ 0.0609 µM); MIC [3]: 32 µg/mL (≈ 32.5 µM); MIC [4]: 32 µg/mL (≈ 32.5 µM); MIC [5]: 32 µg/mL (≈ 32.5 µM); MIC [6]: 8 µg/mL (≈ 8.12 µM); MIC [7]: 8 µg/mL (≈ 8.12 µM); MIC [8]: 0.13 µg/mL (≈ 0.132 µM); MIC [9]: 0.13 µg/mL (≈ 0.132 µM); MIC [10]: 0.25 µg/mL (≈ 0.254 µM); MIC [11]: 32 µg/mL (≈ 32.5 µM); MIC [12]: 1 µg/mL (≈ 1.01 µM); MIC [13]: 8 µg/mL (≈ 8.12 µM); MIC [14]: 16 µg/mL (≈ 16.2 µM); MIC [15]: 16 µg/mL (≈ 16.2 µM)

Q: How did the MIC [1] turn out when `CCNC(=O)O[C@H]1[C@H](C)O[C@@H](O[C@H]2[C@H](N(C)C)[C@@H](O)[C@H](O[C@H]3[C@@H](CC=O)C[C@@H](C)[C@@H](O)CN(C)CCC[C@H](C/C=C/c4cnc5ccccc5c4)OC(=O)C[C@@H](O)[C@@H]3OC)O[C@@H]2C)C[C@@]1(C)OC(=O)CC` was run?
A: 0.25 µg/mL (≈ 0.25 µM)

Q: What about the MIC [2] of the same compound?
A: < 0.008 µg/mL

Q: And the MIC [3]?
A: 4 µg/mL (≈ 4 µM)

Q: What about the MIC [4] of the same compound?
A: 4 µg/mL (≈ 4 µM)

Q: What about the MIC [5] of the same compound?
A: 4 µg/mL (≈ 4 µM)

Q: What about the MIC [6] of the same compound?
A: 0.06 µg/mL (≈ 0.0599 µM)

Q: And the MIC [7]?
A: 0.06 µg/mL (≈ 0.0599 µM)

Q: And the MIC [8]?
A: 0.015 µg/mL (≈ 0.015 µM)

Q: And the MIC [9]?
A: 0.015 µg/mL (≈ 0.015 µM)

Q: And the MIC [10]?
A: 0.06 µg/mL (≈ 0.0599 µM)

Q: And the MIC [11]?
A: 8 µg/mL (≈ 7.99 µM)

Q: And the MIC [12]?
A: 0.06 µg/mL (≈ 0.0599 µM)

Q: What about the MIC [13] of the same compound?
A: 2 µg/mL (≈ 2 µM)

Q: What about the MIC [14] of the same compound?
A: 4 µg/mL (≈ 4 µM)

Q: And the MIC [15]?
A: 4 µg/mL (≈ 4 µM)

Q: `CCNC(=O)O[C@H]1[C@H](C)O[C@@H](O[C@H]2[C@H](N(C)C)[C@@H](O)[C@H](O[C@H]3[C@@H](CC=O)C[C@@H](C)[C@@H](O)CN(C)CCC[C@H](C/C=C/c4cncc5ccccc45)OC(=O)C[C@@H](O)[C@@H]3OC)O[C@@H]2C)C[C@@]1(C)OC(=O)CC` was tested. Which MIC [1] did it give?
A: 0.25 µg/mL (≈ 0.25 µM)

Q: And the MIC [2]?
A: < 0.008 µg/mL

Q: And the MIC [3]?
A: 2 µg/mL (≈ 2 µM)

Q: What about the MIC [4] of the same compound?
A: 4 µg/mL (≈ 4 µM)

Q: And the MIC [5]?
A: 4 µg/mL (≈ 4 µM)

Q: And the MIC [6]?
A: 0.06 µg/mL (≈ 0.0599 µM)

Q: What about the MIC [7] of the same compound?
A: 0.06 µg/mL (≈ 0.0599 µM)

Q: What about the MIC [8] of the same compound?
A: 0.015 µg/mL (≈ 0.015 µM)

Q: What about the MIC [9] of the same compound?
A: 0.015 µg/mL (≈ 0.015 µM)

Q: And the MIC [10]?
A: 0.03 µg/mL (≈ 0.03 µM)

Q: What about the MIC [11] of the same compound?
A: 32 µg/mL (≈ 32 µM)

Q: And the MIC [12]?
A: 0.13 µg/mL (≈ 0.13 µM)

Q: What about the MIC [13] of the same compound?
A: 2 µg/mL (≈ 2 µM)

Q: What about the MIC [14] of the same compound?
A: 4 µg/mL (≈ 4 µM)

Q: And the MIC [15]?
A: 4 µg/mL (≈ 4 µM)

Q: `CCNC(=O)O[C@H]1[C@H](C)O[C@@H](O[C@H]2[C@H](N(C)C)[C@@H](O)[C@H](O[C@H]3[C@@H](CC=O)C[C@@H](C)[C@@H](O)CN(C)CCC[C@H](C/C=C/c4ccc(N)nc4)OC(=O)C[C@@H](O)[C@@H]3OC)O[C@@H]2C)C[C@@]1(C)OC(=O)CC` was tested. Which MIC [1] did it give?
A: 2 µg/mL (≈ 2.07 µM)

Q: And the MIC [2]?
A: 0.03 µg/mL (≈ 0.0311 µM)

Q: What about the MIC [3] of the same compound?
A: 4 µg/mL (≈ 4.14 µM)

Q: What about the MIC [4] of the same compound?
A: 4 µg/mL (≈ 4.14 µM)

Q: And the MIC [5]?
A: 4 µg/mL (≈ 4.14 µM)

Q: And the MIC [6]?
A: 0.25 µg/mL (≈ 0.259 µM)

Q: And the MIC [7]?
A: 0.25 µg/mL (≈ 0.259 µM)

Q: What about the MIC [8] of the same compound?
A: 0.06 µg/mL (≈ 0.0621 µM)

Q: And the MIC [9]?
A: 0.13 µg/mL (≈ 0.135 µM)

Q: What about the MIC [10] of the same compound?
A: 0.13 µg/mL (≈ 0.135 µM)

Q: And the MIC [11]?
A: 16 µg/mL (≈ 16.6 µM)

Q: And the MIC [12]?
A: 0.13 µg/mL (≈ 0.135 µM)

Q: And the MIC [13]?
A: 4 µg/mL (≈ 4.14 µM)

Q: What about the MIC [14] of the same compound?
A: 8 µg/mL (≈ 8.28 µM)

Q: What about the MIC [15] of the same compound?
A: 16 µg/mL (≈ 16.6 µM)

Q: Which MIC [1] does the source give for `CCNC(=O)O[C@H]1[C@H](C)O[C@@H](O[C@H]2[C@H](N(C)C)[C@@H](O)[C@H](O[C@H]3[C@@H](CC=O)C[C@@H](C)[C@@H](O)CN(C)CCC[C@H](C/C=C/c4cnc(N)c5ccccc45)OC(=O)C[C@@H](O)[C@@H]3OC)O[C@@H]2C)C[C@@]1(C)OC(=O)CC` here?
A: 0.5 µg/mL (≈ 0.492 µM)

Q: What about the MIC [2] of the same compound?
A: 0.015 µg/mL (≈ 0.0148 µM)

Q: What about the MIC [3] of the same compound?
A: 1 µg/mL (≈ 0.984 µM)

Q: What about the MIC [4] of the same compound?
A: 1 µg/mL (≈ 0.984 µM)

Q: And the MIC [5]?
A: 1 µg/mL (≈ 0.984 µM)

Q: What about the MIC [6] of the same compound?
A: 0.06 µg/mL (≈ 0.059 µM)

Q: What about the MIC [7] of the same compound?
A: 0.03 µg/mL (≈ 0.0295 µM)

Q: What about the MIC [8] of the same compound?
A: 0.015 µg/mL (≈ 0.0148 µM)

Q: And the MIC [9]?
A: 0.015 µg/mL (≈ 0.0148 µM)

Q: What about the MIC [10] of the same compound?
A: 0.03 µg/mL (≈ 0.0295 µM)

Q: And the MIC [11]?
A: 2 µg/mL (≈ 1.97 µM)

Q: What about the MIC [12] of the same compound?
A: 0.03 µg/mL (≈ 0.0295 µM)

Q: What about the MIC [13] of the same compound?
A: 2 µg/mL (≈ 1.97 µM)

Q: And the MIC [14]?
A: 4 µg/mL (≈ 3.94 µM)

Q: And the MIC [15]?
A: 8 µg/mL (≈ 7.87 µM)
